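Where inhibition never reached the appropriate level, the endpoint shown equals the highest concentration tested. Otherwise, values were interpolated linearly from a five-concentration, 48-hour dose response in 96-well plates. Definition used: TGI = concentration required for complete inhibition of growth.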 Bounds are passed on as bounds.

Test in all cases: NCI anticancer screen, dose series, 48 h
Experiment [1] relates to COLO 205 colon.
The subject of experiment [2] is NCI/ADR-RES ovarian.
The test system of experiment [3] is SR leukemia.
Experiment [4] relates to MDA-MB-435.
For experiment [5], the system named is NCI-H522 lung.
Experiment [6] deals with SF-268 CNS.
For experiment [7], the system named is MDA-MB-231 breast.
Experiment [8] deals with HT29 colon.
The test system of experiment [9] is PC-3 prostate.
In experiment [10] the test system is K-562 leukemia.
In experiment [11] the test system is RXF 393 renal.
For experiment [12], the system named is KM12 colon.
The subject of experiment [13] is OVCAR-4 ovarian.
The subject of experiment [14] is U251 CNS.
Experiment [15] has as its system RPMI-8226 leukemia.
The test system of experiment [16] is HOP-62 NSCLC.
Experiment [17] relates to MOLT-4 leukemia.
Experiment [18] concerns HS 578T breast.
Experiment [19] relates to NCI-H226 lung.
For experiment [20], the system named is OVCAR-5 ovarian.

On to `CN(C)Cc1cc(C=O)cc(CN(C)C)c1O`, for which the TGI in experiment [1], in experiment [2], in experiment [3], in [4], in [5] and in experiment [6] was above 100 µM each time. The TGI in experiment [7], in experiment [8], in experiment [9], in [10], in experiment [11] and in [12] was above 100 µM throughout. Further, the TGI in experiment [13], in experiment [14], in experiment [15], in [16], in experiment [17] and in experiment [18] was above 100 µM throughout. Further, the TGI in experiment [19] was above 100 µM.

For `CN1CCN(CCCCN2c3ccccc3Sc3cc(N=[N+]=[N-])ccc32)CC1`, the TGI in experiment [1] was 3.25 µM; in experiment [2] it was 7.86 µM; in experiment [3], above 100 µM; in experiment [4], 3.17 µM; in experiment [5], 3.31 µM; in [6], 22.4 µM. Moreover, the TGI is 4.14 µM in experiment [7]; 3.03 µM in experiment [8]; 3.57 µM in [9]; 3.04 µM in experiment [10]; 9.83 µM in experiment [11]; 3.48 µM in experiment [12]. For the same compound, the TGI was found to be 7.5 µM in experiment [13]; 7.83 µM in experiment [14]; 5.88 µM in experiment [15]; 6.63 µM in experiment [16]; 4.12 µM in experiment [17]; 5.02 µM in experiment [18]. Moreover, the TGI in experiment [19] is 12.6 µM; in [20] it was 25.8 µM.

As for `O=C(Nc1ccc(Cl)c(Cl)c1)N1N=C2c3ccccc3CCC2C1c1ccc(Cl)cc1` (stereo not given), the TGI in experiment [1], in experiment [2], in [3], in experiment [4], in experiment [5] and in [6] was above 100 µM each time. Also, the TGI in experiment [7], in experiment [8], in experiment [9], in experiment [10], in [11] and in [12] was above 100 µM each time. The TGI in experiment [13], in experiment [14], in experiment [15], in experiment [16], in [17] and in [18] was above 100 µM each time. The TGI in experiment [19] and in experiment [20] was above 100 µM in each case.

Turning to `O=C(c1cc2c(c3ccccc13)NCCN=C2C(F)(F)F)C(F)(F)F`, the TGI in experiment [2] is above 100 µM; in experiment [3] it was 21.3 µM; in [4], above 100 µM; in experiment [5], 72.7 µM; in experiment [6], above 100 µM; in experiment [7] it was 51.4 µM. The TGI in experiment [8] is 33.1 µM; in [9], 33.5 µM; in experiment [10] it was 35.4 µM; in experiment [11], above 100 µM; in [12], above 100 µM; in experiment [13], above 100 µM. For the same compound, the TGI in [14] was 36.9 µM; in experiment [15], 27.4 µM; in experiment [16], 53 µM; in experiment [17] it was 38 µM; in experiment [18], 40.6 µM; in [19], 47.1 µM. The TGI in experiment [20] is above 100 µM.

For the compound `O=C1C(=Cc2cccc(O)c2)N=C(c2ccccc2)N1n1c(-c2ccccc2)nc2ccccc2c1=O`, the TGI is 79.7 µM in experiment [1]; above 100 µM in experiment [2]; 60.5 µM in experiment [3]; above 100 µM in experiment [4]; 56 µM in experiment [5]; 87.5 µM in [6]. Also, the TGI was above 100 µM in [7]; 85 µM in [8]; 58.7 µM in [9]; above 100 µM in [10]; 83.8 µM in [11]; 56.4 µM in [12]. The TGI in [13] was above 100 µM; in experiment [14], above 100 µM; in experiment [15] it was 50.2 µM; in experiment [17], 44.2 µM; in experiment [18] it was 76.8 µM; in experiment [19] it was 18.9 µM. The TGI in experiment [20] amounted to 78.3 µM.

In the case of `O=[N+]([O-])c1cc(Cl)cc2cc(Br)cnc12`, the TGI in [1], in experiment [2], in [3], in experiment [4], in experiment [5] and in experiment [7] was above 31.6 µM in each case. The TGI in experiment [8], in experiment [9], in experiment [10], in experiment [11], in experiment [13] and in experiment [14] was above 31.6 µM in each case. Moreover, the TGI is above 31.6 µM in experiment [15]; above 31.6 µM in [16]; above 31.6 µM in [17]; 28.3 µM in experiment [18]; above 31.6 µM in experiment [19]; above 31.6 µM in [20].

With `COCn1c(C)c(C)c2c(=O)oc(N(C)C)nc21`, the TGI in [1], in experiment [2], in experiment [3], in experiment [4], in [5] and in [7] was above 100 µM throughout. Besides, the TGI in experiment [8], in experiment [9], in [10], in [11], in [12] and in [13] was above 100 µM in each case. Also, the TGI in [14], in experiment [15], in experiment [16], in experiment [17], in [18] and in [19] was above 100 µM in each case. In experiment [20], the TGI was above 100 µM.

Take `Nc1ncnc2c1ncn2[C@H]1CC[C@@H](NO)C1`: the TGI in [1], in [2], in [3], in [4], in experiment [5] and in experiment [6] was above 100 µM each time. In addition, the TGI in experiment [7], in [9], in experiment [10], in [11], in experiment [12] and in experiment [13] was above 100 µM in each case. The TGI in [14], in experiment [15], in [16], in [17], in [18] and in experiment [19] was above 100 µM in each case. For the same compound, the TGI in [20] is above 100 µM.

Take `COc1ccc(-n2c(N)c(C#N)c(C#N)c2-c2ccccc2)cc1`: the TGI in experiment [1], in experiment [2], in [3], in [4], in experiment [5] and in experiment [6] was above 100 µM throughout. The TGI in [7] was above 100 µM; in experiment [8], above 100 µM; in [9], above 100 µM; in experiment [11], above 100 µM; in experiment [12], above 100 µM; in experiment [13] it was 93.2 µM. Besides, the TGI in experiment [14], in experiment [15], in experiment [16], in experiment [17], in experiment [18] and in [19] was above 100 µM in each case. In addition, in experiment [20], the TGI is above 100 µM.

With `Cc1nc(C(N)=S)sc1C(=O)CC(=O)C(=O)Nc1nc2ccccc2[nH]1`, the TGI in experiment [2], in experiment [3], in [4], in [5], in experiment [6] and in experiment [7] was above 100 µM throughout. In addition, the TGI in experiment [8], in experiment [9], in experiment [10], in experiment [11], in experiment [12] and in experiment [13] was above 100 µM each time. For the same compound, the TGI in [14], in experiment [15], in [16], in [17], in experiment [18] and in experiment [19] was above 100 µM in each case. Besides, the TGI in experiment [20] was above 100 µM.

With `O=c1[nH]c(-n2[nH]c3c(c2=O)CCCC3)nc(O)c1-c1ccccc1`, the TGI in experiment [1], in experiment [2], in [3], in experiment [4], in [5] and in experiment [6] was above 100 µM in each case. Further, the TGI in experiment [7], in experiment [8], in experiment [9], in [10], in experiment [11] and in experiment [12] was above 100 µM throughout. Besides, the TGI in experiment [13], in experiment [14], in experiment [15], in experiment [17], in experiment [18] and in [19] was above 100 µM each time. The same compound had a TGI in [20] above 100 µM.
